The results in this text go back to ChEMBL document CHEMBL4417628, “Small molecule antagonists of dusp5 and methods of use” (2018).

Where a chain is given by its changes, count along the chain named. The source made the active and inactive calls. No cut-off for these calls is given here.

Assay [1] concerns the target T1, Dual specificity protein phosphatase 5 (Homo sapiens) (UniProt Q16690).
T1 sequence (whole entry): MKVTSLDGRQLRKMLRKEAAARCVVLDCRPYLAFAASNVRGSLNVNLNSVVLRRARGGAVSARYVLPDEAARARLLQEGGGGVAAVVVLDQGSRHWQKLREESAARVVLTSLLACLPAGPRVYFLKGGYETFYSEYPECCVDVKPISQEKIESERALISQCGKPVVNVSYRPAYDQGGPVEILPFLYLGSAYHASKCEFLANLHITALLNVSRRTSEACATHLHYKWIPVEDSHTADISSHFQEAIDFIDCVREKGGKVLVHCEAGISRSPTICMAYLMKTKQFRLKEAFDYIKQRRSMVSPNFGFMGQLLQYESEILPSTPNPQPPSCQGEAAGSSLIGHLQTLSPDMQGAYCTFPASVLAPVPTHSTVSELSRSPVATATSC
Kind of assay: Potency index, ratio of IC50 for NTS to IC50 for test compound for inhibition of full length DUSP5 (unknown origin) assessed as reduction in de-phosphorylation of GST-tagged recombinant phosphorylated ERK2 incubated for 15 mins by SDS-PAGE based immunoblot assay. For orientation: A western blot detects proteins with antibodies after separation by electrophoresis.

Assay [2] deals with T2, Tyrosine-protein phosphatase non-receptor type 1 (Homo sapiens, UniProt P18031).
T2 sequence (P18031 whole entry): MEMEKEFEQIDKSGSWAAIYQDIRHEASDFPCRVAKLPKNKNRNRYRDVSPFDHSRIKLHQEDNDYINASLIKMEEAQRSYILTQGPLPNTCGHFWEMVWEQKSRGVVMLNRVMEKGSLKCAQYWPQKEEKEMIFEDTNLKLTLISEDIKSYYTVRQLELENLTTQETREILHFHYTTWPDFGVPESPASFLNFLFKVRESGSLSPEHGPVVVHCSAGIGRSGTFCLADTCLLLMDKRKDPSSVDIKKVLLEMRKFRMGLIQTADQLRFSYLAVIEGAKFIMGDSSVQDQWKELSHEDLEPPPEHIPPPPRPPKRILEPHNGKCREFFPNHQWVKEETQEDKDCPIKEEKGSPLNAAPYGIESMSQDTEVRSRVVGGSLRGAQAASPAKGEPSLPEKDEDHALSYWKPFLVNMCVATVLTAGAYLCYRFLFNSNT
Kind of assay: Inhibition of PTPN1 (unknown origin) using PNPP substrate incubated for 15 mins relative to control.

The subject of assay [3] is T3, Dual specificity protein phosphatase 5 (Homo sapiens), Q16690 [C263S].
T3 sequence (whole entry): T1 sequence (whole entry) with C263S
Kind of assay: Binding affinity to N-terminal hexa-histidine-tagged and 15N-labeled DUSP5 C263S mutant (unknown origin) expressed in Escherichia coli BL21 (DE3) at 500 uM by 2D 1H-15N HSQC NMR assay.

For `O=S(=O)([O-])c1cc(O)c2c(S(=O)(=O)[O-])cccc2c1.[Na+].[Na+]`, the Ratio IC50 in assay [1] is 1000. The IC50 entry in assay [2] was “Not Active”. Also, in assay [3], the outcome was Active.
